Like-named read-outs stand apart in the source and are kept apart here.

The subject of one experiment is HK-2 cells. The experiment is described as follows: Apoptosis detection using Annexin V immunostaining after cisplatin. It counts as cell-based, human. Conditions: 10 uM cisplatin; 500 uM compound prophylactically or therapeutically. On the procedure:
Apoptosis and cell viability are quantified using AnnexinV-FITC and propidium iodide staining of HK-2 cells following cisplatin treatment Immortalized PTEC-derived HK-2 cells (ATCC number CRL-2190) are cultured in serum-free keratinocyte medium (GIBCO number 17005-042) supplemented with EGF and BPE for 48 hours (Ryan et al. 1994 Kidney Int 45:48-57). Medium is aspirated and cells are washed with PBS and incubated in the dark for 15 min at room temperature with 10 μl of media binding agent and 1.25 μl of FITC conjugated AnnexinV. Propidium iodide (10 μl) is added, and samples are analyzed immediately. Quantification of Annexin V-FITC and propidium iodide signals is performed by fluorescence microscopy (Axiovert 135; Carl Zeiss). Phase contrast images are observed using transmitted light. Apoptotic cells show cytoplasmic staining and viable cells remain unstained (FIG. 14A-FIG. 14D).

Experiment [1] has as its system mouse model of nephrotoxic serum nephritis. The experiment is described as follows: Nephrotoxic serum nephritis (NTN) model of chronic renal injury. It counts as in vivo. Conditions: oral 5 mg/kg/24 hr. On the procedure:
Attenuation of renal fibrosis progression by Thrasos compound in a mouse model of nephrotoxic serum nephritis. FIG. 8A: Kidney section of vehicle-treated animal, FIG. 8B: Kidney section of animal received oral administration of compound SEQ ID NO 45 (5 mg/kg/24 hr).
Nephrotoxic serum nephritis (NTN) is a model of progressive chronic renal injury. Mice given injections of nephrotoxic serum (NTS) develop glomerulonephritis, leading to tubulointerstitial disease associated with EMT, and ultimately renal fibrosis, over a period of about six weeks. […] In these studies, BMP-7 was able to restore expression of E-cadherin proteins in previously damaged tubules. […] For a review of the above see, Zeisberg et al., Nature Medicine, 9; 7 pp 964-968, (2003) and Kalluri et al., J. Clin Investigation 112:1776-1784 (2003).

The target of the next experiment is ALK-3 (Homo sapiens, UniProt P36894). The experiment is described as follows: Radioligand receptor binding assay (competition with 125I-labeled TDF-1). The source says:
General protocol: These assays are based on competition between ^125I-labeled TDF-1 (BMP-7 or OP-1) and candidate TDFRP compounds or unlabeled TDF-1 for binding to respective receptors (ALK-3, ALK-6 or BMPR-2). In brief, the procedure involves immobilization of receptor on 96 well Removawell plates, blocking the wells with 3% BSA in PBS and subsequently washing the wells. Increasing concentrations of unlabeled TDF-1 or TDFRP compounds or control (unlabeled TDF-1) prepared in binding buffer are then added. Incubate plate for 1 hour at room temperature, and then add a fixed amount of ^125I-labeled TDF-1 (250,000 to 350,000 cpm) to the wells and further incubate in cold (4° C.) for 20 hours. Aspirate the contents of the wells and wash the wells four times with a wash buffer, and count the receptor bound ^125I-labeled TDF-1 in an auto gamma counter.
Using this procedure, TDFRP compound binding to select ALK receptors are assessed. Accordingly, TDFRP compounds that preferentially bind select ALK receptors can be identified. For example, TDFRP compounds that preferentially bind to ALK-3 receptor compared with binding to other ALK receptors, e.g., ALK-6 (FIG. 1 and FIG. 11).

In another experiment the test system is Smad1. The experiment is described as follows: Smad1 nuclear translocation in HK-2 cells (immunofluorescence). The note with it: 1.3 uM and 33 uM compound. It counts as cell-based, human. On the procedure: Phosphorylation and nuclear translocation of Smads occurs following the activation of Type I and Type II receptors and subsequent signal transduction to intracellular Smad targets. Phosphorylation and nuclear translocation of R-Smad in HK-2 cells by TDFRP compounds is assayed by immuno-fluorescent microscopy methods, using anti-phospho Smad 1/5 antibodies according to the procedure of H Aoki, M Fujii, T Imamura, K Yagi, K Takehara, M Kato and K Miyazono. J. of Cell Sci. 114, 1483-1489, 2001) and by Western blot analysis (FIG. 15A-FIG. 15C).
HK2, human proximal tubule cells are incubated in culture medium alone or exposed TDFRP or control compounds for one hour ten minutes at 37 degree C. BMP-7 served as a positive control in the assay. Each well is rinsed with 1 mL prewarmed medium. 1 mL per well of cold Acetone/Methanol mix (1:1) is added and incubated for 2 minutes at room temperature to fix the cells. Wells are washed with 1 mL of cold PBS and blocked with 1 mL blocking buffer (3% BSA, 1% goat serum in PBS) for 7 minutes. Wells are aspirated without disturbing the cells, and 500 uL/well primary antibody is added (anti-phospho-Smad 1) at 0.056 ug/mL concentration in 3% BSA in PBS (no goat serum). Cells are incubated overnight at 4 degrees C. […]

In experiment [2] the test system is rat osteosarcoma (17/2.8) cells. The experiment is described as follows: Rat osteosarcoma (ROS) cell-based alkaline phosphatase assay. Conditions: 0.02-200 uM, 2 days; relative to BMP-7 standard. On the procedure:
BMP interactions with Type I and Type II receptors can induce alkaline phosphatase activity, a marker for osteoblast activity, in ROS cells. An assay procedure as described earlier (Maliakal, J.C., Asahina, I., Hauschka, P. V., and Sampath, T. K. (1994) Growth factors 11, 227-234) was used to determine the biological activities of TDFRP compounds. In a typical experiment, rat osteosarcoma (17/2.8) cells are plated in 96 well plates (3.0×10^4 cells/well) and incubated overnight at 37 C in 5-6% CO2 incubator. The next day, healthy and confluent cells are treated with increasing concentrations of BMP-7 standard (1-10,000 ng/ml) served as positive control or TDFRP compounds (0.02-200 uM) prepared in medium containing 1% FBS and incubated for 2 days at 37 C in 5-6% CO2 incubator. The cellular content of alkaline phosphatase activity is determined by the method of Reddi and Huggins (Reddi, A. H., and Huggins, C. B (1972) Proc. Natl. Acad. Sci. USA 69, 1601-1605). Enzyme estimations are performed in 96 well plates. Following removal of culture medium, cells are washed with pre-warmed PBS (150 ul) and incubated in 100 ul of pre-warmed 1% Triton X-100 for 30 minutes at 37 C. Plates are centrifuged for 10 minutes at full speed, and recovered samples (15 ul) are assayed for enzyme activity by adding 90 ul p-nitrophenyl phosphate (Sigma) as a substrate in 0.05 M glycine-NaOH buffer, pH 9.3 and incubating for 20 minutes at 37 C. The reaction is stopped by adding 75 ul of 0.2 N NaOH/well and absorbance at 405/490 nm is measured on a Dynatech MR 700 plate reader. Results are expressed as relative activities compared to a BMP-7 standard.

Chain of ALK-3 (P36894 24-532, species assumed): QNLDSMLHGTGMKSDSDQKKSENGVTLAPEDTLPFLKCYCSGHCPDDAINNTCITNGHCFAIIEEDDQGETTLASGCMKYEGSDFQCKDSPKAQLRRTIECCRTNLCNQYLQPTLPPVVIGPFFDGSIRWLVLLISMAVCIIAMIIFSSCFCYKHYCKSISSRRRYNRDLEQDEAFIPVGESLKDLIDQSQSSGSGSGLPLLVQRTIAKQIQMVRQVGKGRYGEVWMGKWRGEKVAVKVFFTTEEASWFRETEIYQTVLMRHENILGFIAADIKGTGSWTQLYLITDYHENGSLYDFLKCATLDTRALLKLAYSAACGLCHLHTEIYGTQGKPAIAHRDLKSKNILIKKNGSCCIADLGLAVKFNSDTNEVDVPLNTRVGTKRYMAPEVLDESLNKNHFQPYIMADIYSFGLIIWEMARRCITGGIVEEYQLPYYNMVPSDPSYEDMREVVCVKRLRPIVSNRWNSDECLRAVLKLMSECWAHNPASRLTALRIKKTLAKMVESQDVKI

For the sequence CYFDDSSNVLCKKYRS [SEQ ID NO 45], in the experiment with HK-2 cells, the cisplatin-induced apoptosis entry is on record as “inhibits cisplatin-induced apoptosis”. In experiment [1], the renal fibrosis result is recorded as “significantly attenuated progression of renal fibrosis”. Also, the “differential binding to Type I receptors (ALK-3 compared to ALK-6)” value is “selectively binds to ALK-3” in the experiment with ALK-3 and “binds preferentially to BMP type I receptors (ALK3)” in the experiment with ALK-3 (listed as SEQ ID NO:45). Besides, the Smad1 translocation entry in the experiment with Smad1 is given as “Smad1 Translocation”. Besides, the “induction of alkaline phosphatase activity” value in experiment [2] is listed as “did not induce alkaline phosphatase activity”.
